Here are results for ten compounds from patent publication US20160008470A1, “STORAGE-STABLE COMPOSITIONS OF GLYCEROL MONOALKYL ETHERS” (AIR LIQUIDE SANTE (INTERNATIONAL), priority 2000, published 2016).

Counter-ions that a name gives are not always drawn.

Data set [1] is described as follows: Merckoquant peroxide test (ppm of H2O2) during storage at room temperature. Particulars: for stabilizing effect: 0.05% by weight of the antioxidant; for stabilization of the glycerol monoalkyl ethers over a long period (peroxides, neck-in effect): added to Sensiva SC 50, storage at room temperature, Table 1; for ppm of H2O2: storage at room temperature.
Method: The data in “ppm of H2O2” refer to the peroxide determination using Merckoquant® peroxide test analysis strips. This semiquantitative method for determining peroxide was carried out as follows: • About 0.5 g of the sample to be investigated is placed in a test tube and treated with the same amount of demineralized water. The two phases are mixed by shaking, and a Merckoquant® peroxide test analysis strip is dipped in for one second. The damp strip is removed from the liquid and the peroxide content is read off after 15 seconds using the reference scale and noted. If the peroxide content is too high, the amount is doubled with demineralized water, again shaken etc., until a reading is possible using the reference scale. The value obtained is back-calculated using the dilution.
(§2) Following preparation of the samples, the value for ppm of H2O2 and the pH were determined at regular intervals.
Data set [2] can be described thus: Peroxide number (PON) by titration with sodium thiosulphate. It is filed as physicochemical. The note with it: for peroxide number as a function of time: Example 2, salt solution added to Sensiva SC 50. The procedure: The peroxide number (PON) gives the amount peroxide in milliequivalents of active oxygen which is present in 1000 g of substance, determined in accordance with the method below. • 5.00 g of substance are weighed into a 250 ml Erlenmeyer flask with ground-glass stopper and dissolved in 30 ml of a mixture of 2 parts by volume of chloroform R and 3 parts by volume of acetic acid 98% R with shaking. […] Following the addition of 5 ml of starch solution R, the titration is continued with vigorous shaking until the blue coloration disappears (n1 ml of 0.01 N sodium thiosulphate solution). A control experiment is carried out under the same conditions (n2 ml of 0.01 N sodium thiosulphate solution). For this, at most 0.1 ml of 0.01 N sodium thiosulphate solution must be consumed.
The peroxide number is calculated as follows: […]
where m is the initial weight of the substance in grams.
The method is explained in more detail in DAB 9-Kornrnentar [German Pharmacopoeia 9 Commentary] (K. Hartke, E. Mutschler, Editor, Wissenschaftliche Verlagsgesellschaft mbH Stuttgart, 9th edition 1986).
(§1) The peroxide number of compositions of Sensiva® SC 50 and Lipacide e8G salts was compared with the stability of mixtures of Sensiva® SC 50 and other 30 salts.

A short description of data set [3]: Appearance of the storage bottle (neck-in effect). It is filed as physicochemical. Particulars: for Appearance of the bottle: Example 1, storage at room temperature.
Method: as §2
Data set [4] can be described thus: pH of 50% strength slurry in demineralized water, Merck pH indicator strips. It is filed as physicochemical. The note with it: storage at room temperature. The source says:
The pH of the anhydrous solutions is given as the value which a 50% strength slurry of the respective anhydrous solution in demineralized water has, determined using Merck® pH indicator strips.

Data set [5] can be described thus: Appearance of the composition. The class given is physicochemical.
Source text: n.c.=no change, d.=days, m.=months, w.=weeks, y.=years, n.d.=not detectable, cl=clear, c=colourless, kr=crystals, yl=yellowish, S.=start of the investigation.
as §1

Data set [6] in a line: Hazen colour number. The class given is physicochemical.
[7] abbreviates: Example 2, after storage, time not printed (line below the 2 y. 2 m. lines).
[8] abbreviates: Example 2, start of the investigation.

Regarding `COc1ccc(O)c(C(C)(C)C)c1` [BHA, 3-tert-butyl-4-hydroxyanisole], in data set [1], the stabilizing effect entry is recorded as “exhibit the stabilizing effect” and the “stabilization of the glycerol monoalkyl ethers over a long period (peroxides, neck-in effect)” value was “stabilize the glycerol monoalkyl ethers over a long period”.
With `Cc1cc(C(C)(C)C)c(O)c(C(C)(C)C)c1` [BHT, 2,6-di-tert-butyl-p-cresol], in data set [1], the stabilizing effect result was “exhibit the stabilizing effect” and the “stabilization of the glycerol monoalkyl ethers over a long period (peroxides, neck-in effect)” value is “stabilize the glycerol monoalkyl ethers over a long period”.
Take `CCCCC(CC)COCC(O)CO` (stereo not shown) [Experiment A(Alu), 3-[(2-ethylhexyl)oxy]-1,2-propanediol]: the “PON S.” value in data set [2] (Example 1, start of the investigation) is on record as 0.5 milliequivalents of active oxy. Moreover, the “Appearance of the bottle” value is recorded as “n.c” in data set [3] (2 y. 11 m., listed as A(Alu)) and “n.c” in data set [3] (2 y., listed as A(Alu)). The “ppm of H2O2” value in data set [1] (1 y.) was 10 ppm; in data set [1] (2 m., listed as A(Alu)), 25 ppm; in data set [1] (2 w., listed as A(Alu)) it was 2 ppm; in data set [1] (2 y., listed as A(Alu)), 0 ppm; in data set [1] (3 m., listed as A(Alu)), 25-50 ppm; in data set [1] (3 w.), 2-5 ppm. Further, the “ppm of H2O2” value is 25-50 ppm in data set [1] (4 m., listed as A(Alu)); 2-5 ppm in data set [1] (4 w.); 50 ppm in data set [1] (5 m., listed as A(Alu)); 2-5 ppm in data set [1] (5 w.); 2-5 ppm in data set [1] (6 w.); 50 ppm in data set [1] (6.5 m., listed as A(Alu)). In addition, the “ppm of H2O2” value is reported as 5 ppm in data set [1] (7 w., listed as A(Alu)); 5 ppm in data set [1] (8 w., listed as A(Alu)); 25-50 ppm in data set [1] (8.5 m., listed as A(Alu)); 10-25 ppm in data set [1] (11 m., listed as A(Alu)); 10 ppm in data set [1] (14 m.); 10 ppm in data set [1] (16 m.). For the same compound, the “ppm of H2O2” value in data set [1] (7 d., listed as A(Alu)) is listed as 0.5 ppm; in data set [1] (9 d., listed as A(Alu)), 0.5-1 ppm. Besides, the pH in data set [4] (2 m.), in data set [4] (2 w.), in data set [4] (3 w.), in data set [4] (4 w.), in data set [4] (5 w.) and in data set [4] (6 w.) was 3 in each case. Besides, the pH in data set [4] (7 w.), in data set [4] (8 w.), in data set [4] (7 d.) and in data set [4] (9 d.) was 3 throughout.
As to `CCCCC(CC)COCC(O)CO` (stereo not shown) [Experiment A, 3-[(2-ethylhexyl)oxy]-1,2-propanediol], the Appearance result in data set [5] (setting [7]) is “cl c”. Besides, in data set [5] (setting [8]), the “Appearance S.” value is on record as “cl c”. In addition, the Hazen colour number in data set [6] (Example 1, storage at room temperature, 8 w.) is listed as less than 5; in data set [6] (setting [7]), 0. Moreover, in data set [2] (Example 1, storage at room temperature, 2 y. 11 m., n.d.=not detectable), the “PON 2 y. 11 m.” value was 25.3 milliequivalents of active oxy. In data set [2] (setting [8]), the PONS. was 10 milliequivalents of active oxy. Further, the PON in data set [2] (Example 2, storage 2 y. 2 m.) is 5-10 milliequivalents of active oxy; in data set [2] (Example 2, storage 6 m.), 20 milliequivalents of active oxy; in data set [2] (Example 2, storage 6 w.), 25 milliequivalents of active oxy; in data set [2] (Example 2, storage 11 w.), 25 milliequivalents of active oxy; in data set [2] (Example 2, storage 4 d.), 10 milliequivalents of active oxy; in data set [2] (Example 2, storage 9 d.), 10-25 milliequivalents of active oxy. For the same compound, the “Appearance of the bottle” value in data set [3] (2 y. 11 m., listed as A) was “consider-”; in data set [3] (2 y., listed as A), “neck in”. The PE bottle result in data set [3] (Example 2, storage 2 y. 2 m.) is on record as “considerable”. Moreover, the “development of the peroxide content in stored preparations” value in data set [1] (Table 1, storage) is reported as “chaotic development of the peroxide number”. For the same compound, the “ppm of H2O2” value in data set [1] (2 m., listed as A) is listed as 2-5 ppm; in data set [1] (2 w., listed as A), 2-5 ppm; in data set [1] (2 y., listed as A), 10-25 ppm; in data set [1] (3 m., listed as A), 2-5 ppm; in data set [1] (4 m., listed as A), 5 ppm; in data set [1] (5 m., listed as A), 5 ppm. Besides, the “ppm of H2O2” value in data set [1] (6.5 m., listed as A) is 5 ppm; in data set [1] (7 w., listed as A), 2-5 ppm; in data set [1] (8 w., listed as A) it was 2-5 ppm; in data set [1] (8.5 m., listed as A), 5 ppm; in data set [1] (11 m., listed as A) it was 10 ppm; in data set [1] (7 d., listed as A) it was 2 ppm. For the same compound, the “ppm of H2O2” value in data set [1] (9 d., listed as A) is reported as 2 ppm.
As for `CCCCCCCC(=O)NCC(=O)O` [Lipacide C8G sodium salts, N-octanoylglycine], the “peroxide number as a function of time” value in data set [2] was “the peroxide number decreases as a function of time”. For the same compound, the neck-in effect entry in data set [3] (Example 2, salt solution added to Sensiva SC 50) is “the neck-in effect is avoided”.
On to `CCCCCCCCCCCCCCCC(=O)OC[C@H](O)[C@H]1OC(=O)C(O)=C1O` [ascorbyl palmitate, 6-0-palmitoyl-L-ascorbic acid], for which, in data set [1] (Experiments N and O), the “effect on stabilization of the glycerol monoalkyl ether by vitamin E” value is “inhibit its stabilization by vitamin E”. The “stabilization of the glycerol monoalkyl ethers over a long period (peroxides, neck-in effect)” value in data set [1] was “does not stabilize the glycerol monoalkyl ethers”.
Take `CC(C)(CO)[C@@H](O)C(=O)NCCCO` [dexpanthenol]: in data set [1], the stabilizing effect result is listed as “exhibit the stabilizing effect” and the “stabilization of the glycerol monoalkyl ethers over a long period (peroxides, neck-in effect)” value is recorded as “stabilize the glycerol monoalkyl ethers over a long period”.
In the case of `O=C([O-])CC(O)(CC(=O)[O-])C(=O)[O-].[Na+].[Na+].[Na+]` [sodium citrate], in data set [2], the “peroxide number as a function of time” value is “could not be achieved”.
In the case of `O=S(=O)([O-])[O-].[Na+].[Na+]` [sodium sulphate], the “peroxide number as a function of time” value in data set [2] is reported as “could not be achieved”.
`Cc1c(C)c2c(c(C)c1O)CC[C@@](C)(CCC[C@H](C)CCC[C@H](C)CCCC(C)C)O2` [vitamin E, Alpha-tocopherol]: in data set [1], the stabilizing effect entry was “exhibit the stabilizing effect” and the “stabilization of the glycerol monoalkyl ethers over a long period (peroxides, neck-in effect)” value was “stabilize the glycerol monoalkyl ethers over a long period”.
